From patent publication US8785614B2, “Aberrantly methylated genes in pancreatic cancer” (The Johns Hopkins University, priority 2003, dated 2014)
Where two headings read alike, the source gives them in different places.

Test system: four pancreatic cancer cell lines (AsPC1, Hs766T, MiaPaCa2, Panc1)
Description: Mock-treated cells were cultured with the equivalent volume of PBS alone.
Total RNA was isolated from cultured cells using TRIZOL reagent (invitrogen, Carlsbad, Calif.) and purified using RNeasy Mini Kit (Qiagen, Valencia, Calif.). First- and second-stranded cDNA was synthesized from 10 μg of total RNA using 17-dT) primer (Genset Corp., La Jolla, Calif.) and Superscript Choice system (Invitrogen). Labeled cRNA was synthesized from the purified cDNA by in vitro transcription reaction using the BioArray High Yield RNA Transcript Labeling Kit (Enzo Diagnostics, Inc., Farmingdale, N.Y.) at 37° C. for 6 h. The cRNA was fragmented at 94° C. for 35 min. in a fragmentation buffer [40 mM Tris-acetate @ pH 8.1, 100 mM potassium acestate, and 30 mM magnesium acetate]. The fragmented cRNA was then hybridized to the Human Genome U133A chips (Affymetrix, Santa Clara, Calif.) with 18462 unique gene/EST transcripts at 45° C. for 16 h. The washing and staining procedure was performed in the Affymetrix Fluidics Station according to the manufacturer's instructions. The probes were then scanned using a laser scanner, and signal intensity for each transcript (background-subtracted and adjusted for noise) was calculated using Microarray Suite Software 5.0 (Affymetrix).
Fold change analysis of signal intensities obtained from oligonucleotide microarrays between the two treatment groups was performed using Data Mining software (Afrymetrix).
The global changes in gene expression proxies induced by 5Aza-dC in four pancreatic cancer cell lines (AsPCl, Hs766T, MiaPaCa2, and Panel) were determined using the Afrymetrix U133 oligonucleotide microarrays with 18462 probes sets (transcripts) covering over 13000 full-length sequences of known genes.

Nc1ncn([C@H]2C[C@H](O)[C@@H](CO)O2)c(=O)n1 [5Aza-dC, 5 aza 2′ deoxycytidine]
changes in phenotypes during the treatment period: did not result in apparent changes in their phenotypes | Induced by 5Aza-dC alone? (ADM): No | Induced by 5Aza-dC alone? (ANGPT1): No | Induced by 5Aza-dC alone? (AREG): No | Induced by 5Aza-dC alone? (ATF3): No | Induced by 5Aza-dC alone? (BIK): No | Induced by 5Aza-dC alone? (BIK (Table 3)): No | Induced by 5Aza-dC alone? (BNIP3): Yes | Induced by 5Aza-dC alone? (BST2): Yes | Induced by 5Aza-dC alone? (CACNA1G): Yes | Induced by 5Aza-dC alone? (CAPN5): No | Induced by 5Aza-dC alone? (CASP5): No | Induced by 5Aza-dC alone? (CCNA1): No | Induced by 5Aza-dC alone? (CDC25A): No | Induced by 5Aza-dC alone? (CDH8): Yes | Induced by 5Aza-dC alone? (CDKN1C): Yes | Induced by 5Aza-dC alone? (CDKN2A (p16)): No | Induced by 5Aza-dC alone? (CGR11): No | Induced by 5Aza-dC alone? (CHES1): No | Induced by 5Aza-dC alone? (CHFR): No | Induced by 5Aza-dC alone? (CLDN7): No | Induced by 5Aza-dC alone? (CLDN15): No | Induced by 5Aza-dC alone? (CRIP 1): No | Induced by 5Aza-dC alone? (CRLF1): No | Induced by 5Aza-dC alone? (CSF3): No | Induced by 5Aza-dC alone? (Cdc42 effector protein 2): No | Induced by 5Aza-dC alone? (DAPK2): No | Induced by 5Aza-dC alone? (DAZL): Yes | Induced by 5Aza-dC alone? (DEAD box RNA helicase (VASA)): No | Induced by 5Aza-dC alone? (EDR1): Yes | Induced by 5Aza-dC alone? (EGR4): No | Induced by 5Aza-dC alone? (EREG): No | Induced by 5Aza-dC alone? (GADD45B): No | Induced by 5Aza-dC alone? (GAGE1): Yes | Induced by 5Aza-dC alone? (GAGE2 (Table 2)): No | Induced by 5Aza-dC alone? (GAGE2 (Table 3)): Yes | Induced by 5Aza-dC alone? (GAGE3): Yes | Induced by 5Aza-dC alone? (GAGE4): Yes | Induced by 5Aza-dC alone? (GAGE6): Yes | Induced by 5Aza-dC alone? (GAGE7B (Table 2)): Yes | Induced by 5Aza-dC alone? (GAGE7B (Table 3)): No | Induced by 5Aza-dC alone? (GAS1): No | Induced by 5Aza-dC alone? (H1 historic family, member 2 (BC002649)): No | Induced by 5Aza-dC alone? (HEP27): No | Induced by 5Aza-dC alone? (HMOX1): No | Induced by 5Aza-dC alone? (HPSE): No | Induced by 5Aza-dC alone? (HSPA1A): No | Induced by 5Aza-dC alone? (ID2): No | Induced by 5Aza-dC alone? (ING1): No | Induced by 5Aza-dC alone? (ITM3): No | Induced by 5Aza-dC alone? (KLK12): Yes | Induced by 5Aza-dC alone? (KRT17): No | Induced by 5Aza-dC alone? (LHX2): Yes | Induced by 5Aza-dC alone? (LIPC): Yes | Induced by 5Aza-dC alone? (MAGE1): Yes | Induced by 5Aza-dC alone? (MAGEC1): No | Induced by 5Aza-dC alone? (MBD1): No | Induced by 5Aza-dC alone? (MLH1): No | Induced by 5Aza-dC alone? (MMP1): No | Induced by 5Aza-dC alone? (NGFR): Yes | Induced by 5Aza-dC alone? (NK4): Yes | Induced by 5Aza-dC alone? (NOTCH3): No | Induced by 5Aza-dC alone? (P-glycoprotein (mdr1)): No | Induced by 5Aza-dC alone? (PAX6): Yes | Induced by 5Aza-dC alone? (PIG11): Yes | Induced by 5Aza-dC alone? (PRG1): No | Induced by 5Aza-dC alone? (S100A2): Yes | Induced by 5Aza-dC alone? (S100P): No | Induced by 5Aza-dC alone? (SALL1): Yes | Induced by 5Aza-dC alone? (SARP2): Yes | Induced by 5Aza-dC alone? (SGCE): No | Induced by 5Aza-dC alone? (SPANXA1): No | Induced by 5Aza-dC alone? (SPANXC): No | Induced by 5Aza-dC alone? (STAT3): No | Induced by 5Aza-dC alone? (STC1): Yes | Induced by 5Aza-dC alone? (TERT): No | Induced by 5Aza-dC alone? (UCHL1): Yes | Induced by 5Aza-dC alone? (UCPH): No | Induced by 5Aza-dC alone? (ULBP2): Yes | Induced by 5Aza-dC alone? (WISP2): No | Induced by 5Aza-dC alone? (WIT-1): Yes | Induced by 5Aza-dC alone? (WNT4): Yes | Induced by 5Aza-dC alone? (XAGE-1): Yes | Induced by 5Aza-dC alone? (activity-regulated cytoskeleton-associated protein (APC)): No | transcripts specifically up-regulated by 5Aza-dC treatment in pancreatic cancers (after excluding those reactivated in HPDE): 590 transcripts | Induced by 5Aza-dC alone? (aik3): No | Induced by 5Aza-dC alone? (basic fibroblast growth factor (FGF)): No | Induced by 5Aza-dC alone? (candidate tumor suppressor gene 21 protein (AF040708)): No | Induced by 5Aza-dC alone? (connective tissue growth factor (M92934)): No | Induced by 5Aza-dC alone? (cytovillin 2 (VIL2, ezrin)): No | Induced by 5Aza-dC alone? (hemoglobin, alpha 1 (HBAI)): Yes | genes markedly up-regulated by 5Aza-dC treatment (in one or more pancreatic cancer cell lines but not in HPDE): 475 genes | Induced by 5Aza-dC alone? (interleukin 8): No | Induced by 5Aza-dC alone? (junction adhesion molecule (AF154005)): No | Induced by 5Aza-dC alone? (matrix metalloproteinase 8 (MMP3)): No | Induced by 5Aza-dC alone? (nucleotide-binding site protein 1 (AF298547)): No | Induced by 5Aza-dC alone? (period homolog 1 (PERI)): Yes | Induced by 5Aza-dC alone? (prostate differentiation factor (AF003934)): Yes | Induced by 5Aza-dC alone? (protease inhibitor 12 (neuroserpin) (SERPINU)): No | average number of transcripts induced per cell line (range 116-251 transcripts): ~200 transcripts | Induced by 5Aza-dC alone? (synovial sarcoma, X breakpoint 1 (BC001003)): Yes | Induced by 5Aza-dC alone? (synovial sarcoma, X breakpoint 2 (AF257500)): No | Induced by 5Aza-dC alone? (tissue factor pathway inhibitor-2 (L27624)): No | Induced by 5Aza-dC alone? (transketolase-like protein (X91817)): No
